Source: PubChem BioAssay (NCI)
Several values for one entry are separate records, joined by “and”; a condition that tells them apart may be missing. Equal entries are not always repeated.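 Exposure lasted 48 hours, with cells grown in 96-well plates and compounds tested at five concentrations. Abbreviation: GI50, concentration required for 50% inhibition of growth. TGI: total growth inhibition.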

How the values were obtained:
Assay in all cases: growth of human tumour cells (NCI), 48 h
786-0 renal = tested on: 786-0 renal
NCI-H460 lung = tested on: NCI-H460 lung
RPMI-8226 leukemia = tested on: RPMI-8226 leukemia
SNB-19 CNS = tested on: SNB-19 CNS
SK-MEL-2 melanoma = tested on: SK-MEL-2 melanoma
CCRF-CEM leukemia = tested on: CCRF-CEM leukemia
SNB-75 CNS = tested on: SNB-75 CNS
MDA-MB-435 = tested on: MDA-MB-435
NCI/ADR-RES ovarian = tested on: NCI/ADR-RES ovarian
MALME-3M melanoma = tested on: MALME-3M melanoma

SMILES | GI50 (786-0 renal) | TGI (786-0 renal) | GI50 (NCI-H460 lung) | TGI (NCI-H460 lung) | GI50 (RPMI-8226 leukemia) | TGI (RPMI-8226 leukemia) | TGI (SNB-19 CNS) | GI50 (SK-MEL-2 melanoma) | TGI (SK-MEL-2 melanoma) | TGI (CCRF-CEM leukemia) | GI50 (SNB-75 CNS) | GI50 (MDA-MB-435) | TGI (MDA-MB-435) | GI50 (NCI/ADR-RES ovarian) | TGI (NCI/ADR-RES ovarian) | GI50 (MALME-3M melanoma) | TGI (MALME-3M melanoma) | GI50 (SNB-19 CNS) | GI50 (CCRF-CEM leukemia) | TGI (SNB-75 CNS)
CN1CCN(c2ccc([N+](=O)[O-])c3no[n+]([O-])c23)CC1 | 0.298 µM | 0.923 µM and 1.15 µM | 0.118 µM | 1.17 µM and 0.764 µM | 0.436 µM | 0.795 µM and 2.43 µM | 4.82 µM and 2.24 µM | 0.468 µM | 3.01 µM and 1.66 µM | 0.582 µM | 0.175 µM | 0.642 µM | 2.51 µM and 1.99 µM | 0.286 µM | 2.46 µM and 1.47 µM | 0.378 µM | 0.712 µM and 1.08 µM | – | – | –
CN(C)CCN1C(=O)c2cccc3c(-c4ccc5ncn(C6CCCCC6)c5c4)ccc(c23)C1=O | 1.59 µM | 12.2 µM | 1.01 µM | 7.41 µM | 1.03 µM | 6.1 µM | 20.1 µM | 2.19 µM | 7.32 µM | 7.22 µM | 1.78 µM | 2.71 µM | 11.1 µM | 1.14 µM | 13.4 µM | 1.9 µM | 3.93 µM | 1.88 µM | 1.84 µM | 10.8 µM
CC(C)c1ccc(O)c(O)c(=O)c1 (tested in a mixture with another compound) | – | > 100 µM | – | 0.899 µM | – | 9.79 µM | > 100 µM | – | 3.02 µM | – | – | – | > 100 µM | – | > 36.9 µM | – | 5.44 µM | – | – | 22.8 µM
Cc1cccc2cc3ccc4ccccc4c3cc12 | – | > 100 µM | – | 83.2 µM | – | > 100 µM | > 100 µM | – | 66.5 µM | 39.3 µM | – | – | > 100 µM | – | > 100 µM | – | > 100 µM | – | – | > 100 µM
CC1(C)CC(O)CCCCCCOc2c(CN)cccc2NC(=O)c2nc(cnc2N)-c2ccc(cc2)S1(=O)=O (centres undefined) | 0.0278 µM | 1.97 µM | < 0.0192 µM | 2.31 µM | – | – | 4.46 µM | 1.36 µM | 3.15 µM | 5.53 µM | 0.223 µM | 0.558 µM | 2.16 µM | 2.83 µM | 13.4 µM | 1.31 µM | 2.81 µM | 1.66 µM | < 0.01 µM | 1.74 µM
CCCCc1oc2ccccc2c1C(=O)c1cc(I)c(OCCN(CC)CC)c(I)c1 | 1.64 µM | 3.31 µM | – | 3.87 µM | 1.92 µM | 4.91 µM and 9.09 µM | 5.35 µM and 18.7 µM | – | – | 4.35 µM and 12 µM | 1.92 µM | 2.41 µM | 6.53 µM | 1.94 µM | 4.54 µM and 16.5 µM | 1.86 µM | 3.71 µM and 8.57 µM | 2.04 µM | 1.82 µM | 10.9 µM and 22.9 µM
O=C1C(Nc2cccc(O)c2)=C(Sc2ccc(Cl)cc2)C(=O)N1Cc1ccccc1 | 17.8 µM | 50 µM | 5.61 µM | > 100 µM | 2.23 µM | 7.42 µM | > 100 µM | 28.3 µM | > 100 µM | 34.8 µM | – | 6.43 µM | 20 µM | 7.21 µM | 36.1 µM | 3.81 µM | 17.8 µM | 25.1 µM | 4.08 µM | –
CO[C@@]12[C@H](COC(N)=O)C3=C(C(=O)C(C)=C(N)C3=O)N1C[C@@H]1N[C@@H]12 | 0.717 µM | 4.99 µM and 10.2 µM and 4.74 µM | – | 1.03 µM and 1.48 µM | 2.03 µM and 1.88 µM | 19.2 µM and 14.2 µM and 15.5 µM | – | 4.21 µM and 2.54 µM | 4.96 µM and 7.5 µM and 6.61 µM | 13.2 µM and 1.96 µM and 18.6 µM | – | 2.14 µM and 2.91 µM and 1.53 µM | 6.92 µM and 12.7 µM and 15.3 µM | 3.83 µM | 20 µM and 21.4 µM and > 100 µM | 2.26 µM and 1.38 µM | 4.06 µM and 6.53 µM and 4.03 µM | – | 0.126 µM and 0.0625 µM | –
C/C=C/COc1cc(NC(=S)c2ccoc2C)ccc1OC | – | > 100 µM | – | – | – | 76.7 µM | > 100 µM | – | > 100 µM | > 100 µM | – | – | > 100 µM | – | > 100 µM | – | > 100 µM | – | – | > 100 µM
NC(N)=N/N=C(/c1ccccc1)c1ccc(O)cc1O | – | 96.4 µM | – | 88.4 µM | – | 79.8 µM | > 100 µM | – | > 100 µM | – | – | – | > 100 µM | – | > 100 µM | – | > 100 µM | – | – | > 100 µM
COC(=O)c1cccc2c1Oc1ccccc1S2 | – | > 100 µM | – | > 100 µM | – | > 100 µM | > 100 µM | – | > 100 µM | 56.9 µM | – | – | > 100 µM | – | > 100 µM | – | – | – | – | 71.1 µM
CSc1ccc(C(=O)/C=C/c2ccc(F)cc2)cc1 | > 100 µM | > 100 µM | 70.2 µM | > 100 µM | 22.9 µM | 54.2 µM | > 100 µM | > 100 µM | > 100 µM | 82.6 µM | 7.05 µM | 33.5 µM | 78.3 µM | > 100 µM | > 100 µM | – | – | > 100 µM | 25.5 µM | > 100 µM
